Data from patent US20260109725A1, “MACROLIDE SENOLYTIC COMPOUNDS” (LUNELLA BIOTECH, INC., priority 2022, published 2026).

Legend:
[1] = test system: microorganism; test: antibiotic activity screen, in vitro broth microdilution assay (overall statement); type: cell-based; conditions: vs azithromycin and erythromycin / reference compounds
Procedure: (§1) This is advantageous because use of the compounds of the present approach as therapeutic agents will have less of an impact on the development of antibiotic resistance. For example, embodiments of the present approach were screened for antibiotic activity, using the in vitro broth microdilution assay. […] The assay conditions, described by the Clinical and Laboratory Standards Institute were used for preparation of the inoculum, growth medium, and end point reading. Test substance was dissolved in 100% DMSO, suspended completely by vortexing, diluted by 2-fold serial titrations in the same vehicle, for a total of 11 test concentrations. A 4 μL aliquot of each dilution was added to 196 μL of broth medium seeded with the organism suspension in wells of a 96 well plate (bacterial count: 2-8×10(5) colony forming units/mL final). The final volume was 200 μL in each well and the final DMSO concentration was 2 percent. Test concentrations were 0.1 to 100 μM. Following incubation, the test plates were visually examined and wells were scored for growth or complete growth inhibition to define the minimum inhibitory concentration. Each test substance was evaluated with replicates. Vehicle controls and an active reference agent were used as blank and positive controls. Note that MRSA represents methicillin-resistant Staphylococcus aureus, and VRE represents vancomycin resistant Enterococcus.

[2] = test system: Klebsiella pneumoniae ATCC 43816; test: in vitro broth microdilution assay (MIC); type: cell-based; conditions: ATCC43816
Procedure: as §1

[3] = test system: Escherichia coli ATCC 25922; test: in vitro broth microdilution assay (MIC); type: cell-based; conditions: ATCC25922; Escherichia coli ATCC 25922, QC strain
Procedure: as §1

[4] = test system: Streptococcus pneumoniae ATCC 49619; test: in vitro broth microdilution assay (MIC); type: cell-based; conditions: ATCC49619; Streptococcus pneumoniae ATCC 49619, QC strain
Procedure: as §1

[5] = test system: Staphylococcus aureus ATCC 29213; test: in vitro broth microdilution assay (MIC); type: cell-based; conditions: ATCC29213; Staphylococcus aureus ATCC 29213, QC strain
Procedure: as §1

[6] = test system: Staphylococcus aureus ATCC 33591 MRSA; test: in vitro broth microdilution assay (MIC); type: cell-based
Procedure: as §1

[7] = test system: Escherichia coli JW5503 DEL-tolC; test: in vitro broth microdilution assay (MIC); type: cell-based; conditions: JW5503DELTOLC
Procedure: as §1

[8] = test system: Pseudomonas aeruginosa ATCC 27853; test: in vitro broth microdilution assay (MIC); type: cell-based; conditions: ATCC27853; Pseudomonas aeruginosa ATCC 27853, QC strain
Procedure: as §1

[9] = test system: MRC-5 cells treated with BrdU (senescent fibroblasts); test: SRB assay, BrdU-treated (senescent) MRC-5 cells; type: cell-based, human
Procedure: (§2) For example, in one assay bromodeoxyuridine (5-bromo-2′-deoxyuridine), also known as BrdU, was used to induce senescence in a cell population. BrdU is an analog of the nucleoside thymidine commonly used to identify proliferating cells. BrdU induces controlled DNA damage, and drives cells towards senescence with high efficiency. In the BrdU assay, normal fibroblasts are subjected to prolonged culture (8-days) in the presence of BrdU at 100 μM to induce controlled DNA-damage and senescence. […] Senolytic activity was assessed using the sulforhodamine B assay, also known in the art as the SRB assay. This assay measures the amount of protein remaining attached to the tissue-culture dishes, and is a surrogate marker for cell viability.
(§3) FIG. 1 compares SRB assay results for different concentrations of Azithromycin (100 µM and 50 μM) and Compound [I] (100 μM and 50 μM) of the present approach, on both control MRC-5 cells and MRC-5 cells treated with BrdU. […] (labelled as “Azi-Gal” in FIG. 1) for another 5 days. After that, the SRB assay was performed to determine the effects of the drug on cell viability, using normal MRC-5 cells as the control. […] However, at 50 μM Azithromycin had no effect on either the control cells or senescent cells.
(§4) BrdU Assay: Cells were plated into 24-well plates. Next day, half of the plate was treated with 100 μM of BrdU while control wells were treated with vehicle only (DMSO) and incubated for 8 days at 37° C. in a 5% CO2 humidified atmosphere. After 8 days of BrdU treatment cells were treated with various test compounds or drugs (e.g., azithromycin, roxithromycin, telithromycin, erythromycin, etc.) for another 3-5 days. BrdU or vehicle treatments were continued during the drug treatments as well.
(§5) Sulphorhodamine B assay: After the incubation of the plates cell viability was measured by Sulphorhodamine B assay (SRB). The assay is based on the measurement of cellular protein contents. Cells were fixed with 10% Trichloroacetic acid (TCA) for 1 hour at […], and were dried overnight at room temperature. Then, plates were incubated with SRB for 30 min, washed twice with 1% acetic acid and air dried for at least 1 h. Finally, the protein-bound dye was dissolved in a 10 mM Tris, pH 8.8, solution and read using a plate reader at 540-nm.

[10] = test system: control MRC-5 cells (normal lung fibroblasts); test: SRB assay, control (normal) MRC-5 cells; type: cell-based, human; conditions: 10 μM
Procedure: as §2, §3, §4, §5

[11] = test system: normal MRC-5 cells; test: Images of MRC-5 fibroblasts without BrdU pre-treatment; type: cell-based, human; conditions: 50 μM
Procedure: FIGS. 3A and 3B are images of MRC-5 fibroblasts without and with BrdU pre-treatment, respectively, treated with Compound [I] at a concentration of 50 μM. […] The scale bar in the upper-right of FIGS. 3B and 3C represents 20 μm.
as §4

[12] = test system: MRC-5 cells treated with BrdU; test: xCELLigence assay, BrdU-treated MRC-5 cells; type: cell-based, human; conditions: 50 μM, 5 days after 8 days BrdU, compared to the control
From the text: Senescent cells undergo the so-called senescence-associated secretory phenotype (SASP), which involves dramatic increases in the synthesis and secretion of proteins. The xCELLigence assay system was used to assess whether protein measurement assays under-estimate the senolytic activity of tested compounds. […] The real-time xCELLigence assay system thus compliments the more static SRB assay, and offers a more direct visualization of the potential senolytic effects of compounds during drug screening.
The xCELLigence assay was used to confirm senolytic activity for Compound [I]. MRC-5 fibroblasts were used for the assay. […] The data is expressed as the final cell index, the average±the standard error of mean, for the control cells, control cells treated with Compound [I], BrdU-treated control cells, and BrdU-treated fibroblasts subjected to Compound [I] at 50 μM, respectively. The senescent MRC-5 cells were pretreated with BrdU for 8 days to induce senescence, before exposure to Compound [I] for another 5 days. Compared to the control, Compound [I] treatment had no effect on the viability of normal fibroblasts, but killed over 90% of the BrdU-treated fibroblasts.
xCELLigence Assay System: xCELLigence RTCA System (ACEA Biosciences Inc.). […] This approach allows the quantification of the onset and kinetics of the cellular response. […]

## CC[C@H]1OC(=O)[C@H](C)[C@@H](O[C@@H]2C[C@@](C)(OC)[C@@H](O)[C@H](C)O2)[C@H](C)[C@@H](O[C@@H]2O[C@H](C)C[C@H](N(C)C)[C@H]2OC(=O)OCc2ccc(O[C@@H]3O[C@H](COC(C)=O)[C@H](OC(C)=O)[C@H](OC(C)=O)[C@H]3OC(C)=O)c([N+](=O)[O-])c2)[C@](C)(O)C[C@@H](C)CN(C)[C@H](C)[C@@H](O)[C@]1(C)O [Compound [I], [(2R,3S,4S,5R,6S)-3,4,5-triacetoxy-6-[4-[[(2S,3R,4S,6R)-4-(dimethylamino)-2-[[(2R,3S,4R,5R,8R,10R,11R,12S,13S,14R)-2-ethyl-3,4,10-trihydroxy-13-[(2S,4R,5S,6S)-5-hydroxy-4-methoxy-4,6-dimethyl-tetrahydropyran-2-yl]oxy-3,5,6,8,10,12,14-heptamethyl-15-oxo-1-oxa-6-azacyclopentadec-11-yl]oxy]-6-methyl-tetrahydropyran-3-yl]oxycarbonyloxymethyl]-2-nitro-phenoxy]tetrahydropyran-2-yl]methyl acetate]
[1]
  antibiotic activity compared to macrolide antibiotics: less antibiotic activity
[2]
  MIC: 50 µM
[3]
  MIC: 12.5 µM
[4]
  MIC: 0.78 µM
[5]
  MIC: 6.25 µM
[6]
  MIC: > 100 µM
[7]
  MIC: 6.25 µM
[8]
  MIC: > 100 µM
[9]; 10 μM
  effect on senescent cells (SRB): effective
[9]; 50 μM, senescent vs control MRC-5
  selectivity towards senescent MRC-5 fibroblasts (SRB): exceptional selectivity
[10]
  effect on control cells (SRB): effective
[11]
  effect on normal MRC-5 cells (images): little effect
[12]
  BrdU-treated fibroblasts killed (xCELLigence final cell index): over 90%
